Read-outs that look alike come from different tables or passages of the source.
Columns and labels:
Type in all cases: cell-based
HBV = assay: Anti-viral assay in HepG2.2.15 cells: HBV DNA in culture medium by qPCR; conditions: HepG2.2.15 cells, 6 days treatment, HBV DNA in culture medium by real-time PCR, read-out: EC50
Protocol: (§1) HepG2.2.15 (the HepG2.2.15 cell line can be produced by transfection of the HepG2 cell line as described in Sells, Chen, and Acs 1987 (Proc. Natl. Acad. Sci. USA 84: 1005-1009), and the HepG2 cell line is available from ATCC® under number HB-8065™).
(§2) HepG2.2.15 cells were plated into 96-well plate in 2% FBS culture medium at the density of 40,000 cells/well and 5,000 cells/well for HBV inhibitory activity and cytotoxicity determination, respectively. After incubation at 37° C., 5% CO2 overnight, cells were treated with medium containing compounds for 6 days with medium and compounds refreshed after 3 days of treatment. Each compound was tested in a 1:3 serial dilutions at 8 different concentrations in triplicate. The highest concentration of the compounds was 10 uM or 1 uM for anti-HBV activity assay and 100 uM for cytotoxicity determination. Cell viability was determined by CCK-8 assay. After 6 days of compounds treatment, 20 μl CCK-8 reagents were added to each well of cytotoxicity assay plates. Cell plates were incubated at 37° C., 5% CO2 for 2.5 h. The absorbance at 450 nm wavelength and the absorbance at 630 nm wavelength as reference was measured.
The change of HBV DNA level induced by the compounds was assessed by quantitative real-time polymerase chain reaction (qPCR). Briefly, the HBV DNA in the culture medium was extracted using QlAamp 96 DNA Blood Kit according to the manual and then quantified by real-time PCR assay using the primers and probe in the table 1 below.
(§3) EC50 and CC50 values are calculated by the GRAPHPAD PRISM software.

HepG2.2.15 cells = assay: Cytotoxicity determination in HepG2.2.15 cells (CCK-8 cell viability); conditions: 6 days treatment, CCK-8, highest concentration 100 uM
Protocol: as §1, §2, §3

[1] = as above; conditions: human, 6 days treatment, CCK-8, highest concentration 100 uM
Protocol: as §1, §2, §3

[2] = Hepatitis B virus, HepG2.2.15, 144 h

SMILES | EC50 (HBV) [nM] | CC50 (HepG2.2.15 cells) [µM] | EC50 (HBV; [2]) [nM] | CC50 at 6 days [1] [µM]
CCOC(=O)C1=C(CN2CCO[C@H]3CN(CC(C)(C)C(=O)O)C[C@H]32)NC(c2nccs2)=N[C@H]1c1ccc(F)cc1Cl (relative stereo) [Compound I-1A, 3-((4aR*,7aS*)-4-4(R*)-6-(2-chloro-4-fluorophenyl)-5-(ethoxycarbonyl)-2-(thiazol-2-yl)-3,6-dihydropyrimidin-4-yl)methyl)hexahydropyrrolo[3,4-b][1,4]oxazin-6(2H)-yl)-2,2-dimethylpropanoic acid] | 16 | 59.8 | – | –
CCOC(=O)C1=C(CN2CCO[C@H]3CN(CC(C)(C)C(=O)O)C(=O)[C@H]32)NC(c2nccs2)=N[C@H]1c1ccc(F)cc1Cl (relative stereo) [Compound I-20A, 3-((4aS*,7aS*)-4-4(R*)-6-(2-chloro-4-fluorophenyl)-5-(ethoxycarbonyl)-2-(thiazol-2-yl)-3,6-dihydropyrimidin-4-yl)methyl)-5-oxohexahydropyrrolo[3,4-b][1,4]oxazin-6(2H)-yl)-2,2-dimethylpropanoic acid] | 1 | 55 | – | –
CCOC(=O)C1=C(CN2CCO[C@@H]3CN(S(=O)(=O)C4CC(C)(C(=O)O)C4)C[C@@H]32)NC(c2nccs2)=N[C@H]1c1cccc(F)c1C (relative stereo) [Compound I-9F, (4aS*,7aR*)—(S)-3-((4-((5-(Ethoxycarbonyl)-6-(3-fluoro-2-methylphenyl)-2-(thiazol-2-yl)-3,6-dihydropyrimidin-4-yl)methyphexahydropyrrolo[3,4-b][1,4]oxazin-6(2H)-yl)sulfonyl)-1-methylcyclobutanecarboxylic acid] | – | – | 110 | 82.6
COC(=O)C1=C(CN2CCO[C@H]3CN(C(=O)OC(C)(C)C)C[C@H]32)NC(c2ncc(F)cc2F)=N[C@@H]1c1ccc(F)cc1Cl (single isomer, unassigned) [Reference 1F, tert-butyl (4aR*,7aS*)-4-4(S*)-6-(2-chloro-4-fluorophenyl)-2-(3,5-difluoropyridin-2-yl)-5-(methoxycarbonyl)-3,6-dihydropyrimidin-4-yl)methyphexahydropyrrolo[3,4-b][1,4]oxazine-6(2H)-carboxylate, reference compound] | – | – | 87 | 5.8
CCOC(=O)C1=C(CN2CCO[C@H]3CN(CC(C)(C)C(=O)O)C(=O)[C@H]32)NC(c2nccs2)=N[C@H]1c1cccc(F)c1C (single isomer, unassigned) [Compound I-3B, (S)-3-((4aS*,7aS*)-4-((5-(Ethoxycarbonyl)-6-(3-fluoro-2-methylphenyl)-2-(thiazol-2-yl)-3,6-dihydropyrimidin-4-yl)methyl)-5-oxohexahydropyrrolo[3,4-b][1,4]oxazin-6(2H)-yl)-2,2-dimethylpropanoic acid] | – | – | 5.2 | 60.2
COC(=O)C1=C(CN2CCO[C@H]3CN(CC(C)(C)C(=O)O)C(=O)[C@H]32)NC(c2nccs2)=N[C@H]1c1cccc(F)c1Cl (single isomer, unassigned) [Compound I-24A, 3-((4aS*,7aS*)-4-4(R*)-6-(2-chloro-3-fluorophenyl)-5-(methoxycarbonyl)-2-(thiazol-2-yl)-3,6-dihydropyrimidin-4-yl)methyl)-5-oxohexahydropyrrolo[3,4-b][1,4]oxazin-6(2H)-yl)-2,2-dimethylpropanoic acid] | 14 | > 100 | – | –
CCOC(=O)C1=C(CN2CCO[C@H]3CCN(CC(C)(C)C(=O)O)C[C@H]32)NC(c2nccs2)=N[C@H]1c1cccc(F)c1C (single isomer, unassigned) [Compound I-10A, 3-((4aR*,8aS*)-4-(((S)-5-(Ethoxycarbonyl)-6-(3-fluoro-2-methylphenyl)-2-(thiazol-2-yl)-3,6-dihydropyrimidin-4-yl)methyl)hexahydro-2H-pyrido[4,3-b][1,4]oxazin-6(7H)-yl)-2,2-dimethylpropanoic acid] | – | – | 28 | 94.5
CCOC(=O)C1=C(CN2CCO[C@@H]3CN(CC(C)(C)C(=O)O)CC[C@@H]32)NC(c2nccs2)=N[C@H]1c1cccc(F)c1C (single isomer, unassigned) [Compound I-11A, (S)-3-((4aR*,8aS*)-1-((5-(Ethoxycarbonyl)-6-(3-fluoro-2-methylphenyl)-2-(thiazol-2-yl)-3,6-dihydropyrimidin-4-yl)methyl)hexahydro-1H-pyrido[3,4-b][1,4]oxazin-6(7H)-yl)-2,2-dimethylpropanoic acid] | – | – | 48 | 97.9
COC(=O)C1=C(CN2CCO[C@H]3CN(CC(C)(C)C(=O)O)C[C@H]32)NC(c2nccs2)=N[C@H]1c1ccc(F)cc1Cl (single isomer, unassigned) [Compound I-15A, 3-((4aR*,7aS*)-4-((R*)-6-(2-Chloro-4-fluorophenyl)-5-(methoxycarbonyl)-2-(thiazol-2-yl)-3,6-dihydropyrimidin-4-yl)methyl)hexahydropyrrolo[3,4-b][1,4]oxazin-6(2H)-yl)-2,2-dimethylpropanoic acid] | – | – | 19 | > 100
COC(=O)C1=C(CN2CCO[C@H]3CN(CC(C)(C)C(=O)O)C(=O)[C@H]32)NC(c2nccs2)=N[C@H]1c1ccc(F)c(F)c1Cl (single isomer, unassigned) [Compound I-22A, 3-((4aS*,7aS*)-4-4(R*)-6-(2-chloro-3,4-difluorophenyl)-5-(methoxycarbonyl)-2-(thiazol-2-yl)-3,6-dihydropyrimidin-4-yl)methyl)-5-oxohexahydropyrrolo[3,4-b][1,4]oxazin-6(2H)-yl)-2,2-dimethylpropanoic acid] | – | – | 0.5 | 44.3
COC(=O)C1=C(CN2CCO[C@H]3CN(C(=O)OC(C)(C)C)C[C@H]32)NC(c2ncc(F)cc2F)=N[C@H]1c1ccc(F)cc1Cl (single isomer, unassigned) [Reference 1E, tert-butyl (4aR*,7aS*)-4-4(R*)-6-(2-chloro-4-fluorophenyl)-2-(3,5-difluoropyridin-2-yl)-5-(methoxycarbonyl)-3,6-dihydropyrimidin-4-yl)methyl)hexahydropyrrolo[3,4-b][1,4]oxazine-6(2H)-carboxylate, reference compound] | – | – | > 1000 | 11.7
COC(=O)C1=C(CN2CCO[C@H]3CN(CC(C)(C)C(=O)O)C[C@H]32)NC(c2nccs2)=N[C@H]1c1cccc(F)c1Cl (single isomer, unassigned) [Compound I-16A, 3-((4aR*,7aS*)-4-0(R*)-6-(2-Chloro-3-fluorophenyl)-5-(methoxycarbonyl)-2-(thiazol-2-yl)-3,6-dihydropyrimidin-4-yl)methyl)hexahydropyrrolo[3,4-b][1,4]oxazin-6(2H)-yl)-2,2-dimethylpropanoic acid] | – | – | 15 | 92.8
COC(=O)C1=C(CN2CCO[C@@H]3CN(C(=O)OC(C)(C)C)C[C@H]32)NC(c2ncc(F)cc2F)=N[C@H]1c1ccc(F)cc1Cl (single isomer, unassigned) [Reference 1A, (4aR*,7aR*)-tert-butyl 4-(((R*)-6-(2-chloro-4-fluorophenyl)-2-(3,5-difluoropyridin-2-yl)-5-(methoxycarbonyl)-3,6-dihydropyrimidin-4-yl)methyl)hexahydropyrrolo[3,4-b][1,4]oxazine-6(2H)-carboxylate, reference compound] | – | – | > 1000 | 14
CCOC(=O)C1=C(CN2CCO[C@H]3CN(CC(C)(C)C(=O)O)C(=O)[C@H]32)NC(c2nccs2)=N[C@H]1c1cccc(F)c1Cl (single isomer, unassigned) [Compound I-18A, 3-((4aS*,7aS*)-4-4(R*)-6-(2-chloro-3-fluorophenyl)-5-(ethoxycarbonyl)-2-(thiazol-2-yl)-3,6-dihydropyrimidin-4-yl)methyl)-5-oxohexahydropyrrolo[3,4-b][1,4]oxazin-6(2H)-yl)-2,2-dimethylpropanoic acid] | – | – | 7 | 62.4
COC(=O)C1=C(CN2CCO[C@H]3CN(CC(C)(C)C(=O)O)C(=O)[C@H]32)NC(c2nccs2)=N[C@H]1c1ccc(F)c(F)c1C (single isomer, unassigned) [Compound I-17B, 3-((4aS*,7aS*)-4-(((S*)-6-(3,4-difluoro-2-methylphenyl)-5-(methoxycarbonyl)-2-(thiazol-2-yl)-3,6-dihydropyrimidin-4-yl)methyl)-5-oxohexahydropyrrolo[3,4-b][1,4]oxazin-6(2H)-yl)-2,2-dimethylpropanoic acid] | – | – | 2.6 | 41.7
